Laboratory results from US20210214375A1 (LUNDBECK LA JOLLA RESEARCH CENTER, INC., priority 2017, published 2021).
pIC50: −log10 of the molar value. Read-outs that look alike come from different tables or passages of the source.

Experiments:
[1] = target: T1, MAGL (Mus musculus, UniProt O35678); experiment: Mouse brain proteomes from inhibitor treated mice (oral gavage, brain proteomes analyzed 4 h after administration); assay type: in vivo, mouse (C57Bl/6J); conditions: brain proteome 4 h after administration, read-out: % Inh 5 mg/kg MGLL (Mouse)
T1 construct: from tissue; host or cells: brain of wild-type C57Bl/6J mice
T1 sequence (O35678 1-303): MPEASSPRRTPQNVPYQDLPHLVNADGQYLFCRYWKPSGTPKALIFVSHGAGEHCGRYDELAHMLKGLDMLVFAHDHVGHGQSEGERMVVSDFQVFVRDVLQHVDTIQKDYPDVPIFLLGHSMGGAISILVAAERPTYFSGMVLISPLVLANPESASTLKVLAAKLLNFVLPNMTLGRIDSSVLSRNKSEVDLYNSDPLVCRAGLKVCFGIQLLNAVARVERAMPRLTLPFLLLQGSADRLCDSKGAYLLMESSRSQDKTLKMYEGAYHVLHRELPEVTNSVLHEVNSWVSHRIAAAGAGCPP
Procedure: (§1) Compounds are tested to assess their MAGL and serine hydrolase activity using the following in vitro and in vivo assays.
Preparation of Mouse Brain Proteomes from Inhibitor Treated Mice.
Inhibitors were administered to wild-type C57Bl/6J by oral gavage in a vehicle of polyethylene glycol. Each animal was sacrificed 4 h following administration and brain proteomes were prepared and analyzed according to previously established methods (See Niphakis, M. J., et al. (2011) ACS Chem. Neurosci. and Long, J. Z., et al. Nat. Chem. Biol. 5:37-44).

[2] = target: T2, MAGL (Homo sapiens, UniProt Q99685); experiment: In vitro competitive activity-based protein profiling (gel-based, FP-Rh or HT-01 probe); assay type: biochemical
T2 construct: Proteomes (human prefrontal cortex or cell membrane fractions); from tissue
T2 sequence (Q99685 1-303): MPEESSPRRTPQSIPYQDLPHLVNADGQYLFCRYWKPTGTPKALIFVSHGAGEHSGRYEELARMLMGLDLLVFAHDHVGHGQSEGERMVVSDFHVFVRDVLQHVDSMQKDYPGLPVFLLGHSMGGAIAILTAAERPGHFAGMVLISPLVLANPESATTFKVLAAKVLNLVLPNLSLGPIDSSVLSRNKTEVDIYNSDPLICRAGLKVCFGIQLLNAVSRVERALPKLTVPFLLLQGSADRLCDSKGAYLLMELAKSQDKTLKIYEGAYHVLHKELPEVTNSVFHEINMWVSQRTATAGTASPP
Procedure: as §1
(§2) Proteomes (human prefrontal cortex or cell membrane fractions) (50 μL, 1.0 mg/mL total protein concentration) were preincubated with varying concentrations of inhibitors at 37° C. After 30 min, FP—Rh or HT-01 (1.0 μL, 50 μM in DMSO) was added and the mixture was incubated for another 30 min at room temperature. Reactions were quenched with SDS loading buffer (15 μL-4×) and run on SDS-PAGE.

[3] = target: T3, ABHD6 (Mus musculus, UniProt Q8R2Y0); experiment: In vitro competitive activity-based protein profiling, mouse brain proteome, ABHD6; assay type: biochemical; conditions: for % Inh ABHD6 Brain (Mouse, μM): mouse brain proteome; for pIC50: mouse
T3 construct: Brain; from tissue; host or cells: mouse brain proteome
T3 sequence (Q8R2Y0 1-336): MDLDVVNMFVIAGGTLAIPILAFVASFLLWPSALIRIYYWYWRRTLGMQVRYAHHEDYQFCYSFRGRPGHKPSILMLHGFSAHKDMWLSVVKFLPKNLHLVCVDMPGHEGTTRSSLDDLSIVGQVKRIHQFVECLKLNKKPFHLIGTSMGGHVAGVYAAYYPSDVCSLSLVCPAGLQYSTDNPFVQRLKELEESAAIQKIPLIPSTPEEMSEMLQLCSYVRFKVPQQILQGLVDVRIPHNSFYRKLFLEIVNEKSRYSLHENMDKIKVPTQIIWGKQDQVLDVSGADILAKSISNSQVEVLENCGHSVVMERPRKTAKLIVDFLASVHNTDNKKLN
Procedure: [Worded in the source for another target; this target is reported under the same test.] as §2

[4] = target: T4, MGLL (Mus musculus, UniProt O35678); experiment: In vitro competitive activity-based protein profiling, mouse brain proteome; assay type: biochemical
T4 construct: Brain; from tissue; host or cells: mouse brain proteome
T4 sequence (O35678 1-303): T1 sequence (O35678 1-303)
Procedure: [Worded in the source for another species; this species is reported under the same test.] as §2

[5] = PC3 proteome, read-out: IC50 MGLL PC3 (Human)
[6] = PFC (prefrontal cortex) proteome
[7] = PFC (prefrontal cortex) proteome, read-out: IC50 MGLL PFC (Human)

SMILES | pIC50 [3] | pIC50 [4] | also measured
CC(C)(C#Cc1c(Cl)cccc1CN1CCCC12CCN(C(=O)OC(C(F)(F)F)C(F)(F)F)CC2)C(=O)O [Example 1, 4-(2-Chloro-6-((8-(((1,1,1,3,3,3-hexafluoropropan-2-yl)oxy)carbonyl)-1,8-diazaspiro[4.5]decan-1-yl)methyl)phenyl)-2,2-dimethylbut-3-ynoic acid] |  |  | inhibition at 5 mg/kg [1]: 25 to 75%; pIC50 [2, 5]: > 7.00; % Inh MGLL PFC (Human, μM) [2, 6]: ### (### is ≥ 75%)
O=C(O)CN1CC2CC1CN2c1cc(C(F)(F)F)ccc1CN1CCCC12CCN(C(=O)OC(C(F)(F)F)C(F)(F)F)CC2 (centres unmarked) [Example 6, 2-(5-(2-((8-(((1,1,1,3,3,3-hexafluoropropan-2-yl)oxy)carbonyl)-1,8-diazaspiro[4.5]decan-1-yl)methyl)-5-(trifluoromethyl)phenyl)-2,5-diazabicyclo[2.2.1]heptan-2-yl)acetic acid] |  |  | % Inh ABHD6 Brain (Mouse, μM) [3]: # (# is ≤ 25%); % Inh MGLL Brain (Mouse, μM) [4]: ### (### is ≥ 75%); pIC50 [2, 5]: > 7.00; % Inh MGLL PFC (Human, μM) [2, 6]: ### (### is ≥ 75%); pIC50 [2, 7]: > 7.00
CN(Cc1cc(N2CCCC2)cc(C(F)(F)F)c1)C1(C)CCN(C(=O)OC(C(F)(F)F)C(F)(F)F)CC1 [Example 76, 1,1,1,3,3,3-Hexafluoropropan-2-yl 4-methyl-4-(methyl(3-(pyrrolidin-1-yl)-5-(trifluoromethyl)benzyl)amino) piperidine-1-carboxylate] | < 6.00 | 6.00 to 7.00 | pIC50 [2, 7]: > 7.00
O=C(O)CN1CC2CC1CN2c1cc(CN2CC3(CCN(C(=O)OC(C(F)(F)F)C(F)(F)F)CC3)C2)cc(C(F)(F)F)c1 (centres unmarked) [Example 129, 2-(5-{3-[(7-{[(1,1,1,3,3,3-Hexafluoropropan-2-yl)oxy]carbonyl}-2,7-diazaspiro[3.5]nonan-2-yl)methyl]-5-(trifluoromethyl)phenyl}-2,5-diazabicyclo[2.2.1]heptan-2-yl)acetic acid] |  |  | inhibition at 5 mg/kg [1]: ≤ 25%
O=C(O)[C@@H]1CCCN1C1CCN(c2cc(C(F)(F)F)ccc2CN2CCCC23CCN(C(=O)OC(C(F)(F)F)C(F)(F)F)CC3)CC1 [Example 164, (1-(2-((8-(((1,1,1,3,3,3-Hexafluoropropan-2-yl)oxy)carbonyl)-1,8-diazaspiro[4.5]decan-1-yl)methyl)-5-(trifluoromethyl)phenyl)piperidin-4-yl)-L-proline] |  |  | % Inh ABHD6 Brain (Mouse, μM) [3]: # (# is ≤ 25%); % Inh MGLL Brain (Mouse, μM) [4]: ### (### is ≥ 75%); % Inh MGLL PC3 (Human, μM) ([2]; PC3 proteome): ### (### is ≥ 75%)
O=C(O)C1CCN(c2cc(Cl)ccc2CN2CCC3(CC2)CCN(C(=O)OC(C(F)(F)F)C(F)(F)F)C3)CC1 [Example 194, 1-(5-Chloro-2-((2-(((1,1,1,3,3,3-hexafluoropropan-2-yl)oxy)carbonyl)-2,8-diazaspiro[4.5]decan-8-yl)methyl)phenyl) piperidine-4-carboxylic acid] | < 6.00 | 6.00 to 7.00 | pIC50 [2, 5]: > 7.00; pIC50 [2, 7]: > 7.00
O=C(O)C1CCN(c2cc(C(F)(F)F)ccc2CN2CCC3(CC2)CCN(C(=O)OC(C(F)(F)F)C(F)(F)F)C3)CC1 [Example 195, 1-(2-((2-(((1,1,1,3,3,3-Hexafluoropropan-2-yl)oxy)carbonyl)-2,8-diazaspiro[4.5]decan-8-yl)methyl)-5-(trifluoromethyl)phenyl)piperidine-4-carboxylic acid] | < 6.00 | 6.00 to 7.00 | pIC50 [2, 5]: > 7.00; pIC50 [2, 7]: 6.00 to 7.00
CC(=O)N1CC2CN(c3cc(Cl)ccc3CN3CCN(C(=O)OC(C(F)(F)F)C(F)(F)F)CC3)CC2C1 (centres unmarked) [Example 202, 1,1,1,3,3,3-Hexafluoropropan-2-yl 4-(2-(5-acetylhexahydro-pyrrolo[3,4-c]pyrrol-2(1H)-yl)-4-chlorobenzyl) piperazine-1-carboxylate] | < 6.00 | 6.00 to 7.00 | 
CS(=O)(=O)N1CC2CN(c3cc(Cl)ccc3CN3CCN(C(=O)OC(C(F)(F)F)C(F)(F)F)CC3)CC2C1 (centres unmarked) [Example 203, 1,1,1,3,3,3-Hexafluoropropan-2-yl 4-(4-chloro-2-(5-(methylsulfonyl)hexahydropyrrolo[3,4-c]pyrrol-2(1H)-yl)benzyl)piperazine-1-carboxylate] | < 6.00 | 6.00 to 7.00 | 
CC(=O)N1CCCC12CCN(c1cc(Cl)ccc1CN1CCN(C(=O)OC(C(F)(F)F)C(F)(F)F)CC1)CC2 [Example 204, 1,1,1,3,3,3-Hexafluoropropan-2-yl 4-(2-(1-acetyl-1,8-diazaspiro[4.5]decan-8-yl)-4-chlorobenzyl) piperazie-1-carboxylate] | < 6.00 | 6.00 to 7.00 | 
CS(=O)(=O)N1CCCC12CCN(c1cc(Cl)ccc1CN1CCN(C(=O)OC(C(F)(F)F)C(F)(F)F)CC1)CC2 [Example 205, 1,1,1,3,3,3-Hexafluoropropan-2-yl 4-(4-chloro-2-(1-(methylsulfonyl)-1,8-diazaspiro[4.5]decan-8-yl)benzyl)piperazine-1-carboxylate] | < 6.00 | 6.00 to 7.00 | 
CN1CC2CN(c3cc(Cl)ccc3CN3CCN(C(=O)OC(C(F)(F)F)C(F)(F)F)CC3)CC2C1 (centres unmarked) [Example 206, 1,1,1,3,3,3-Hexafluoropropan-2-yl 4-(4-chloro-2-(5-methylhexahydro-pyrrolo[3,4-c]pyrrol-2(1H)-yl)benzyl)piperazine-1-carboxylate] | < 6.00 | 6.00 to 7.00 | 
CC(=O)N1CCCC12CCN(c1cc(C(F)(F)F)ccc1CN1CCN(C(=O)OC(C(F)(F)F)C(F)(F)F)CC1)CC2 [Example 208, 1,1,1,3,3,3-Hexafluoropropan-2-yl 4-(2-(1-acetyl-1,8-diazaspiro[4.5]decan-8-yl)-4-(trifluoromethyl)benzyl)piperazine-1-carboxylate] | < 6.00 | 6.00 to 7.00 | 
CS(=O)(=O)N1CCCC12CCN(c1cc(C(F)(F)F)ccc1CN1CCN(C(=O)OC(C(F)(F)F)C(F)(F)F)CC1)CC2 [Example 209, 1,1,1,3,3,3-Hexafluoropropan-2-yl-((2-(1-(methylsulfonyl)-1,8-diazaspiro[4.5]decan-8-yl)-4-(trifluoromethyl)benzyl)piperazine-1-carboxylate] | 6.00 to 7.00 | > 7.00 | 
CN1CCCC12CCN(c1cc(Cl)ccc1CN1CCN(C(=O)OC(C(F)(F)F)C(F)(F)F)CC1)CC2 [Example 214, 1,1,1,3,3,3-Hexafluoropropan-2-yl 4-(4-chloro-2-(1-methyl-1,8-diazaspiro[4.5]decan-8-yl)benzyl)piperazine-1--carboxylate] | < 6.00 | 6.00 to 7.00 | 
CN1CCCC12CCN(c1cc(C(F)(F)F)ccc1CN1CCN(C(=O)OC(C(F)(F)F)C(F)(F)F)CC1)CC2 [Example 215, 1,1,1,3,3,3-Hexafluoropropan-2-yl 4-(2-(1-methyl-1,8-diazaspiro[4.5]decan-8-yl)-4-(trifluoromethyl)benzyl)piperazine-1-carboxylate] | < 6.00 | 6.00 to 7.00 | 
CS(=O)(=O)N1CCc2cccc(CN3CCC4(CC3)CCN(C(=O)OC(C(F)(F)F)C(F)(F)F)C4)c2C1 [Example 217, 1,1,1,3,3,3-Hexafluoropropan-2-yl 8-((2-(methylsulfonyl)-1,2,3,4-tetrahydroisoquinolin-8-yl)methyl)-2,8-diazaspiro[4.5]decane-2-carboxylate] | 6.00 to 7.00 | > 7.00 | 
CC(=O)N1CC2(CCN(c3ccccc3CN3CCC34CCN(C(=O)OC(C(F)(F)F)C(F)(F)F)CC4)C2)C1 [Example 228, 1,1,1,3,3,3-Hexafluoropropan-2-yl 1-(2-(2-acetyl-2,6-diazaspiro[3.4]octan-6-yl)benzyl)-1,7-diazaspiro[3.5]nonane-7-carboxylate] | < 6.00 | 6.00 to 7.00 | 
CS(=O)(=O)N1CCC2(CCN(c3cc(Cl)cc(CN4CCCC45CN(C(=O)OC(C(F)(F)F)C(F)(F)F)C5)c3)CC2)C1 [Example 232] | 6.00 to 7.00 | < 6.00 | 
